Results published in patent publication US20250034264A1, “REGULATING T CELL IMMUNE RESPONSE THROUGH IGF-I RECEPTOR (IGF-1R)” (The Regents of the University of Michigan, priority 2021, published 2025).

What was measured:
Format in all cases: cell-based, human
[1] = tested on: fibrocyte-adherent CD4+ T cells; assay: IL-17A and INFγ in fibrocyte-adherent CD4+ T cells (flow cytometry)
Method: (§1) Invariably, a small population of tightly adherent T cells were found in the fibrocyte cultures, consistent with the previous findings. Culture viability was routinely verified to be >90%. CD4^+ T cells were enriched using the CD4 isolation cocktail (Cat #0.130-096-533, Miltenyi Biotec, San Diego, CA) followed by negative selection using a magnetic column (Cat #0.130-042-401) according to manufacturer's protocol. Fibrocytes and isolated T cells were cultured and remained untreated or were incubated with human IgG isotype control (5 μg/ml) or teprotumumab (50 μg/mL) for 7 to 9 days. Single cell suspensions were stained with anti-human CD4, CD3, CD34, MHC-2, CD80, CD86, and PD-L1 (BD Biosciences) for 30 min, rinsed and fixed with CytoPerm/CytoFix (BD). They were then stained with anti-human INFγ and IL-17A for 20 min, rinsed, and subjected to the flow cytometry analysis. Gated CD34^+CXCR4^+ fibrocytes and CD4^+CD3^+ T cells were analyzed using quadrant settings based on negative isotype staining.
(§2) In vitro studies of CD34^+ fibrocytes and T cells PBMC and GD-OF monolayers were treated in vitro with human IgG isotype control (5 μg/ml), teprotumumab (50 μg/mL), H7 (5 μg/mL), linsitinib (1 μM), bTSH (5 mIU/mL), M22 (1 μg/mL), or IGF-1 (10 nM) for the intervals indicted in the figure legends in a 37° C., 5% CO2, humidified incubator until confluent. Brefeldin A (0.66 μl/ml), (Golgi Stop™, BD Biosciences), phorbol 12-myristate 13-acetate (PMA) (50 ng/ml) and ionomycin (1 μg/mL) were added for 5 h. Cells were rinsed with flow cytometry buffer (1×PBS, 0.5% BSA, 0.1% sodium azide) and stained with the relevant monoclonal antibodies.

[2] = tested on: CD34+ fibrocytes; assay: MHC II, CD80, CD86, PD-L1 expression in cultured fibrocytes (RT-qPCR, flow cytometry)
Description: Fibrocyte and T cell isolation and cultivation. Peripheral blood mononuclear cells (PBMCs) were obtained from the venous circulation of clinic patients with GD, TAO or from healthy donors after obtaining informed consent. PBMCs were also obtained from Red Cross donor plasmapheresis filters. They were isolated by Ficoll-Histopaque (Sigma-Aldrich, St. Louis, MO) density gradient centrifugation. Fibrocytes were cultivated as described (Bucala, R, et al., (1994) Mol Med 1, 71-81, incorporated herein by reference in its entirety) except that culture substrata remained uncoated with fibronectin, as previously described (Douglas, R. S., et al. (2010) The Journal of clinical endocrinology and metabolism 95, 430-438). Isolated PBMCs (1×10^6-1×107) were inoculated in six-well plates covered with DMEM containing 10% FBS and incubated in 10-14 days. Adherent monolayers (<5% of the starting population) were washed with PBS and detached using accutase (Millipore) treatment, or mechanical scraping following accutase treatment. Culture purity was routinely confirmed by FACS analysis to be >90% fibrocytes by confirming the CD31^−CD45^+CD34^+CXCR4^+Col I^+TSFR^high phenotype.
as §1, §2
(§3) Real-time PCR Confluent fibrocyte and GD-OF cultures were incubated with bTSH (5 mIU/mL), teprotumumab (50 μg/mL) or linsitinib (1 μM) for the time intervals indicated, washed with PBS and RNA was extracted with the Aurum Total RNA Mini Kit (cat. #732-6820, Bio-Rad, Hercules, CA). Cellular RNA (2 μg) was reverse transcribed using QuantiTect Reverse Transcription kit (cat. #205314, Qiagen (Germantown, MD) and real-time PCR was performed using an Applied Biosystems instrument with QuantiTect SYBR Green PCR kit (cat. no. 204143; Qiagen, Frederick, MD). Primer sequences were as follows.

[3] = tested on: GD-OF; assay: Slit2 and ROBO1 mRNA and Slit2 protein; conditions: 50 μg/ml, 3 d
Method: FIGS. 14A-14B are graphs showing teprotumumab induces Slit2 and roundabout 1 (ROBO1) mRNA and Slit2 protein in GD-OF. Cultures were treated with either isotype control IgG or teprotumumab (50 μg/ml) for 3 d. Culture media were collected and subjected to Slit2-specific ELISA (FIG. 14A). Levels of Slit2 were normalized to respective cell layer protein content. Cellular RNA was harvested from rinsed cell layers and mRNA reverse transcribed, and cDNA subjected to quantitative real-time PCR for Slit2 and ROBO1 (FIG. 14B). Values were normalized to their respective GAPDH levels. * *, p<0.01, * **, p<0.001.
as §3

[4] = tested on: fibrocytes; assay: IL-23p19 and IL-12p35 mRNA expression, real-time PCR; conditions: teprotumumab 50 μg/ml or linsitinib 1 μM, 7-9 d
Method: FIGS. 10A-10F are graphs showing the divergent effect of teprotumumab on bTSH induced IL-23p19 and IL-12p35 expression on fibrocytes and GD-OF. Rinsed fibrocyte and GD-OF monolayers were incubated with or without 50 μg/ml teprotumumab (FIGS. 10A and 10B) or 1 μM linsitinib (FIGS. 10C and 10D) and human Isotype IgG for 7-9 d, and bTSH (5 mIU/mL) was added for 6 h. Harvested RNA was reverse transcribed and isolated cDNA was subjected to quantitative real-time PCR for IL-23p19 and IL-12p35 mRNA levels. Values were normalized to their respective GAPDH levels and are expressed as the mean±SD of three independent determinations. Experiments were repeated three times. FIGS. 10E and 10F are graphs showing the levels of IL-23 protein when rinsed fibrocyte and GD-OF monolayers were incubated with or without 50 μg/ml teprotumumab. **, p<0.01; ***. P<0.001.
as §3

[5] = fibrocytes from GD patients (n=28), 50 μg/mL, 9 d
[6] = teprotumumab 50 μg/mL, time-dependent over 9 d treatment

teprotumumab
INFγ MFI ([1]; 50 μg/mL, 9 d, control MFI 64.01±10.15): 26.80±5.61 | IL-17A MFI ([1]; 50 μg/mL, 9 d, control isotype MFI 76.03±14.17): 65.17±5.61 | abundance of adherent CD3+CD4+ T cells ([1]; cultures from both donor cohorts): substantially reduced | effect on MHC II, CD80, CD86, PD-L1 expression, teprotumumab compared with TSHR inhibitor ML224 ([2]; 9 d, single agents and in combination): effective | surface proteins MHC II, CD80, CD86, PD-L1 at 9 days ([2]; 9 days): uniformly reduced to levels of detectability or below | induction of MHC II, CD80, CD86, PD-L1 surface proteins ([2]; bTSH-treated fibrocytes): blocked | frequency of CD34+ fibrocytes ([2]; cultures from GD patients and healthy controls): unaffected | reduction in level of CD80 cell-surface protein [2, 5]: 52% | reduction in level of CD86 cell-surface protein [2, 5]: 49% | reduction in level of MHC II cell-surface protein [2, 5]: 57% | reduction in level of PD-L1 cell-surface protein [2, 5]: 47% | induction of MHC II, CD80, CD86, PD-L1 mRNA by bTSH and M22 ([2]; teprotumumab 50 μg/mL, 1H7 5 μg/mL, linsitinib 1 μM): blocked | protein levels of MHC II, CD80, CD86, PD-L1 [2, 6]: substantially reduced | steady-state mRNA levels of MHC II, CD80, CD86, PD-L1 [2, 6]: substantially reduced | Slit2 protein synthesis ([3]; ELISA): increased | ROBO1 mRNA expression ([3]; three strains of GD-OF): induced | Slit2 mRNA expression ([3]; three strains of GD-OF): induced | IL-12p35 expression, basal and induction by bTSH [4]: enhances | IL-23p19 expression, basal and induction by bTSH [4]: inhibited
